Test results: US12364682B2, “Use of tegaserod in preparation of anti-tumor drug” (Qingdao Haiji Biomedicine Co., Ltd., priority 2019, dated 2025)
Counter-ions that a name gives are not always drawn.

Tests used:
STAT3 = assay: STAT3-dependent luciferase reporter gene test; format: cell-based; details: Homo sapiens; SKA cells (A549 with STAT3-luciferase reporter gene), 24 h; read-out: IC50 of inhibitory effect on STAT3 (luciferase reporter)
Procedure: HeLa and SKA cells (A549 cells constructed with the STAT3-luciferase reporter gene) were cultivated in a DMEM medium, and DU145, A549, DLD1, H460, and MC38 were cultivated in an RPMI 1640 medium. For routine cultivation, 10% fetal bovine serum (FBS), 100 IU/ml penicillin, and […] streptomycin were added to a medium. All cells were cultivated at 37° C. and 5% CO2.
SKA cells were inoculated into a white 96-well plate at a density of 1×10^4/well, and cultivated overnight at 37° C. and 5% CO2. A drug to be tested was added at a concentration to be tested to act on the cells for 24 h. The luciferase activity was determined on a SpectraMax®L microplate reader using a luciferase kit (purchased from Promega®).

STAT3 (Y705) = assay: Western blotting of IL-6-induced STAT3 activation in HeLa cells; format: cell-based; details: 2 h drug, then 5 ng/ml IL-6 for 10 min
Procedure: (§1) The cells were harvested and lysed with an RIPA buffer, a resulting lysate was subjected to sodium dodecyl sulfate-polyacrylamide gel electrophoresis (SDS-PAGE), and a resulting protein was transferred to a nitrocellulose (NC) membrane (purchased from GE Healthcare®). A primary antibody was added to bind the protein to be tested on the membrane, then a horseradish peroxidase (HRP)-conjugated secondary antibody (purchased from Absin) was added for incubation, and finally a formed immunocomplex was detected with an Immobilon™ Western chemiluminescent HRP substrate (Millipore®) and photographed with a Tanon® 5200 imaging system.
IL-6 was the main cytokine to activate STAT3 signaling. Hela cells were first treated with different concentrations of Tegaserod for 2 h, then stimulated with 5 ng/ml IL-6 for 10 min before harvested. Total protein was extracted, and the phosphorylation of STAT3 (Y705) was detected through western blotting.

lung cancer A549 cells = assay: Cell viability assay, A549; format: cell-based; details: Homo sapiens, 72 h, read-out: growth inhibition IC50
Procedure: (§2) Cells were inoculated into a 96-well plate at a density of 3,000 cells/well. After the cells were cultivated for 18 h, different concentrations of a drug to be tested were added to act on the cells. 72 h after the drug to be tested was added, 10 μl of resazurin (1 mg/ml) was added to each well, the plate was further incubated for 3 h, and then a fluorescence value at 595 nm (excitation wavelength at 544 nm) was determined on a SpectraMax®i3 multifunctional microplate reader (purchased from Molecular Device®)
(§3) After cells were treated with Tegaserod for 72 h, the cell viability was determined to reflect the inhibitory effect of the drug on cell growth.

JAK1 Tyr1022/1023 = biological target: T1, JAK1 Tyr1022/1023 (Homo sapiens, UniProt P23458); assay: Western blotting of JAK1 phosphorylation in DU145 cells; format: cell-based
T1 construct: endogenous in cells; host or cells: DU145
Procedure: as §1
(§4) STAT3 is usually JAK-kinase-phosphorylated and activated by the autophosphorylated JAK kinase upstream thereof.

[1] = test system: immune cells in peripheral blood; assay: Blood cell analysis of peripheral blood; format: in vivo; details: tumor-bearing mice, after administration
Procedure: After the tumor-bearing mice were sacrificed by CO2, blood was collected from the heart and placed into an EDTA anticoagulation tube, and the blood cell component test was conducted using an IDEXX ProCyte Dx automatic blood cell analyzer.
In order to verify this hypothesis, the composition change of immune cells in peripheral blood after the administration of Tegaserod was first detected.

[2] = test system: NSCLC A549 transplanted tumors; assay: A549 transplanted tumor nude mouse model; format: in vivo, nude mice
Procedure: (§5) Female NRMI nu/nu athymic nude mice (SPF grade, 6 weeks old, with a weight of 17 g to 20 g) were purchased from GemPharmatech®, and raised in a constant-temperature and constant-humidity environment according to standard requirements, where a 12 h light-dark cycle was adopted. The animal experiment was approved by the Laboratory Animal Committee of Ocean University of China and complied with the “Guide for Care and Use of Laboratory Animals” published by the National Institutes of Health (NIH Publication No. 85-23, revised in 1996).
(§6) Nude mice were subcutaneously injected with an A549 cell suspension (female mice) or a DU145 matrigel cell suspension (male mice). After palpable solid tumors were formed, constructed model mice were randomly divided into groups, each with 7 to 10 mice. Administration treatment was conducted according to the experimental grouping. Throughout the experiment, a body weight was measured regularly. A tumor volume was calculated as follows: tumor volume=0.5×length×width×width.

[3] = test system: prostate cancer DU145 cells; assay: Cell viability assay, DU145; format: cell-based; details: Homo sapiens, DU-145, 72 h, read-out: growth inhibition IC50
Procedure: as §2, §3

DLD1 colon cancer cells = assay: Cell viability assay, DLD1; format: cell-based; details: Homo sapiens, DLD-1, 72 h, read-out: growth inhibition IC50
Procedure: as §2, §3

[4] = test system: CRC MC38 transplanted tumors; assay: CRC MC38 syngeneic tumor model; format: in vivo; details: immune-sound mice
Description: (§7) Some parts in nude mice had acquired immune cell deficiency and an imperfect immune system, and thus the anti-tumor effect and immunomodulatory effect of Tegaserod were further tested in immune-sound mice.

[5] = test system: immune cells in DU145 transplanted tumors; assay: FCM analysis of immune cells in DU145 transplanted tumors; format: in vivo; details: DU145 transplanted tumors in nude mice
Procedure: (§8) At the end of the experiment, the mice were sacrificed by C02, a proper amount of tumor tissue was collected and placed in a dissociation tube with a mouse tumor dissociation reagent (MC38 transplanted tumor) or human tumor dissociation reagent (DU145 transplanted tumor), and a tissue dissociator (Miltenyi) was used for dissociation. Separated single cells were subjected to RBC lysis and dead cell staining, obtained cells were incubated with a blocking solution at 4° C., a corresponding antibody was added, and analysis was conducted on a FACSAriaIII cell sorter.
Furthermore, the composition and proportion of immune cells in DU145 transplanted tumors in nude mice were tested through FCM.

[6] = test system: immune cells in MC38 transplanted tumors; assay: FCM analysis of immune cells in MC38 tumors; format: in vivo, mice
Procedure: as §8, §7

TYK2 Tyr1054/1055 = biological target: T2, TYK2 Tyr1054/1055 (Homo sapiens, UniProt P29597); assay: Western blotting of TYK2 phosphorylation in DU145 cells; format: cell-based; details: high concentration 15 μM, 2 h
T2 construct: endogenous in cells; host or cells: DU145
Procedure: as §1, §4

[7] = test system: prostate cancer DU145 transplanted tumors; assay: DU145 transplanted tumor nude mouse model; format: in vivo, nude mice
Procedure: as §5, §6

STAT3 Tyr705 [8] = assay: Western blotting of constitutive STAT3 activation in A549 cells; format: cell-based; details: constitutively activated STAT3, 2 h
Procedure: as §1
(§9) Different concentrations of Tegaserod were added to normally-cultured cells to act on the cells for 2 h, a cell protein lysate was collected for western blotting assay, and an activation status of STAT3 was observed through a phosphorylation status at an STAT3 Tyr705 site.

STAT3 Tyr705 [9] = assay: Western blotting of constitutive STAT3 activation in DU145 cells; format: cell-based, human; details: constitutively activated STAT3, 2 h
Procedure: as §1, §9

JAK2 Tyr1007/1008 = biological target: T3, JAK2 Tyr1007/1008 (Homo sapiens, UniProt O60674); assay: Western blotting of JAK2 phosphorylation in DU145 cells; format: cell-based; details: 7.5 μM, 2 h
T3 construct: endogenous in cells; host or cells: DU145
Procedure: as §1, §4

phosphorylated STAT3 = assay: Immunohistochemistry of phosphorylated STAT3 in DU145 transplanted tumors; format: in vivo, nude mice; details: oral administration
Procedure: (§10) Paraffin sections were deparaffinized with xylene, washed with ethanol of various grades, subjected to antigen retrieval, blocked with a blocking solution in a 37° C. incubator, then treated with a primary antibody and a secondary antibody, stained with a DAB staining solution, treated with hematoxylin, a differentiation solution, an ammonia solution, ethanol of various grades, and xylene, and sealed with a neutral resin.
In addition, the human prostate cancer cell line DU145 with constitutive STAT3 activation was selected, and the effect of Tegaserod on the growth of transplanted tumors of the human prostate cancer cell line in nude mice was also tested.

[10] = test system: mouse stromal cells of DU145 transplanted tumors; assay: Transcriptome sequencing of DU145 transplanted tumors; format: in vivo, nude mice; details: mouse-derived cells in DU145 transplanted tumors, mRNA sequencing
Procedure: An appropriate amount of tumor tissue was collected and quick-frozen with liquid nitrogen, and eukaryotic mRNA sequencing was conducted by Majorbio. Based on the Illumina® Novaseq 6000™ sequencing platform, all mRNAs transcribed from specific eukaryotic tissues or cells in a specified period were sequenced. In the sequencing experiment, the Illumina Truseq™ RNA sample prep kit method was used to build a library. Raw data were used for quality control, sequence alignment, transcript assembly, function annotation, and expression analysis.
In order to further explore the immunomodulatory effect of Tegaserod in an anti-tumor process, the transcriptome sequencing technology was used to conduct mRNA sequencing for DU145 transplanted tumors in nude mice, and sequencing results were aligned to the mouse reference genome to obtain the overall mRNA expression of mouse-derived cells in DU145 transplanted tumors in nude mice.

[11] = Body weight and toxicity observation in tumor-bearing mice; format: in vivo
Procedure: as §6

lung cancer H460 cells = assay: Cell viability assay, H460; format: cell-based; details: Homo sapiens, NCI-H460, 72 h, read-out: growth inhibition IC50
Procedure: as §2, §3

[12] = test system: cell proliferation marker Ki67; assay: Immunohistochemistry of Ki67 in DU145 transplanted tumors; format: in vivo, nude mice; details: oral 1.25 mg/kg once every two days
Procedure: as §10

T1 sequence (P23458 whole entry): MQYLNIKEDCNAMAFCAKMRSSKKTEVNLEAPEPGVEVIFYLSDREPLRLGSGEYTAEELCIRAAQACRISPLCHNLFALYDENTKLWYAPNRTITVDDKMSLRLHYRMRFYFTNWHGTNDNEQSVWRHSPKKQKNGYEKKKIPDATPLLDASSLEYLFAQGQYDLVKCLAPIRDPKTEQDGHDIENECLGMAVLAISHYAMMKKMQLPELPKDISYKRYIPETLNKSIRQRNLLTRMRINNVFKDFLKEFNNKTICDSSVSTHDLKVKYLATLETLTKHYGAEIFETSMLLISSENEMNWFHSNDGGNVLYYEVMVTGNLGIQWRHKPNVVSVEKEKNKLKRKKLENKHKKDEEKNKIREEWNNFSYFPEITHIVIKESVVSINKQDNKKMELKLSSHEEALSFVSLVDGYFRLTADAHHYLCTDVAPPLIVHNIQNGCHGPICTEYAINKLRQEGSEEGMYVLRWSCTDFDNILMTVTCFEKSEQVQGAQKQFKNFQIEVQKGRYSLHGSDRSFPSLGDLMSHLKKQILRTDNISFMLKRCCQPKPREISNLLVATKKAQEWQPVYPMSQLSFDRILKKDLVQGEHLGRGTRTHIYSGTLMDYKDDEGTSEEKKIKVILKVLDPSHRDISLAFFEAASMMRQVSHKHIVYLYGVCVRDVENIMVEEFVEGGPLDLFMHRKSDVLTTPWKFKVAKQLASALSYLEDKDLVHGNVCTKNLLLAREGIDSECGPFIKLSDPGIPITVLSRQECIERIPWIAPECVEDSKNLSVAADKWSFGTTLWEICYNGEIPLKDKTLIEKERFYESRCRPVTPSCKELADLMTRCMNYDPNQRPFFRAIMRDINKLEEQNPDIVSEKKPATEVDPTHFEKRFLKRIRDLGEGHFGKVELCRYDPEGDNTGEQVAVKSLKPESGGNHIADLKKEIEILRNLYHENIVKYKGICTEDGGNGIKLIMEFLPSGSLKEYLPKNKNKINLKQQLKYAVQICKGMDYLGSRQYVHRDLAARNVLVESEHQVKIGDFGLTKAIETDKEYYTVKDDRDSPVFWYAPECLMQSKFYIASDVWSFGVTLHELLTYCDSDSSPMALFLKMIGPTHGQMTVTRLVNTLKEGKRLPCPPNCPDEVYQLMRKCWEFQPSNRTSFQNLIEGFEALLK
T2 sequence (P29597 whole entry): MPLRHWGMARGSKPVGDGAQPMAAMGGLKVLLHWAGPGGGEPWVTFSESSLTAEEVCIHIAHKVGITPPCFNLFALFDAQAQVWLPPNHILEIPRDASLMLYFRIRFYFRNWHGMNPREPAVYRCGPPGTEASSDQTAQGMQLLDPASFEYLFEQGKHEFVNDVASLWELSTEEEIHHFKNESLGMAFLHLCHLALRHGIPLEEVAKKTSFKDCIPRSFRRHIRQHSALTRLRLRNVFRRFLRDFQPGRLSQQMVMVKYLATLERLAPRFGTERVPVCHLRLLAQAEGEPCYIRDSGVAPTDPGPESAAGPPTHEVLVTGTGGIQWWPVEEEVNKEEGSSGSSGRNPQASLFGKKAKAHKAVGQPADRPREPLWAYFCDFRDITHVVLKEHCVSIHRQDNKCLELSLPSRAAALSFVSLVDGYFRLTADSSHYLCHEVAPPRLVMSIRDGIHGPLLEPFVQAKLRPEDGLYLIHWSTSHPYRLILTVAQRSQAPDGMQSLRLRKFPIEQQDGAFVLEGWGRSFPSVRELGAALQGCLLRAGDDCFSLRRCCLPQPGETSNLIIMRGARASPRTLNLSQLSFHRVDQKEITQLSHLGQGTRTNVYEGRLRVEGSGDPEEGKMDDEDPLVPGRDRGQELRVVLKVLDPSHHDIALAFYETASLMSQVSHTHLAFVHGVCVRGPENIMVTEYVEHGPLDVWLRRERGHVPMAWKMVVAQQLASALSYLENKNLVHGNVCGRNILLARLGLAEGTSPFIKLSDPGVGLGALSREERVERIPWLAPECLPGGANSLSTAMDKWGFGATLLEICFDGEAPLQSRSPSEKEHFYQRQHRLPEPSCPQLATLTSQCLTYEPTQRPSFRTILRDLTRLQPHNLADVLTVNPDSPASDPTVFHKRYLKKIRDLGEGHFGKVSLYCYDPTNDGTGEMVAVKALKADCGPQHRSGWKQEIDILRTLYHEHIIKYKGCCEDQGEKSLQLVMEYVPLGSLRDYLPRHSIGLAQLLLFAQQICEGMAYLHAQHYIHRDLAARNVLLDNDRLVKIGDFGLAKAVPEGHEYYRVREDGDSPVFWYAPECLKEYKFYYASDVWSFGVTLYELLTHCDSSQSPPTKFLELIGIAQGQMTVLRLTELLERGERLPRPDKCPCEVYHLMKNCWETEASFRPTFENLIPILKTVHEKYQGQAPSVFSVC
T3 sequence (O60674 whole entry): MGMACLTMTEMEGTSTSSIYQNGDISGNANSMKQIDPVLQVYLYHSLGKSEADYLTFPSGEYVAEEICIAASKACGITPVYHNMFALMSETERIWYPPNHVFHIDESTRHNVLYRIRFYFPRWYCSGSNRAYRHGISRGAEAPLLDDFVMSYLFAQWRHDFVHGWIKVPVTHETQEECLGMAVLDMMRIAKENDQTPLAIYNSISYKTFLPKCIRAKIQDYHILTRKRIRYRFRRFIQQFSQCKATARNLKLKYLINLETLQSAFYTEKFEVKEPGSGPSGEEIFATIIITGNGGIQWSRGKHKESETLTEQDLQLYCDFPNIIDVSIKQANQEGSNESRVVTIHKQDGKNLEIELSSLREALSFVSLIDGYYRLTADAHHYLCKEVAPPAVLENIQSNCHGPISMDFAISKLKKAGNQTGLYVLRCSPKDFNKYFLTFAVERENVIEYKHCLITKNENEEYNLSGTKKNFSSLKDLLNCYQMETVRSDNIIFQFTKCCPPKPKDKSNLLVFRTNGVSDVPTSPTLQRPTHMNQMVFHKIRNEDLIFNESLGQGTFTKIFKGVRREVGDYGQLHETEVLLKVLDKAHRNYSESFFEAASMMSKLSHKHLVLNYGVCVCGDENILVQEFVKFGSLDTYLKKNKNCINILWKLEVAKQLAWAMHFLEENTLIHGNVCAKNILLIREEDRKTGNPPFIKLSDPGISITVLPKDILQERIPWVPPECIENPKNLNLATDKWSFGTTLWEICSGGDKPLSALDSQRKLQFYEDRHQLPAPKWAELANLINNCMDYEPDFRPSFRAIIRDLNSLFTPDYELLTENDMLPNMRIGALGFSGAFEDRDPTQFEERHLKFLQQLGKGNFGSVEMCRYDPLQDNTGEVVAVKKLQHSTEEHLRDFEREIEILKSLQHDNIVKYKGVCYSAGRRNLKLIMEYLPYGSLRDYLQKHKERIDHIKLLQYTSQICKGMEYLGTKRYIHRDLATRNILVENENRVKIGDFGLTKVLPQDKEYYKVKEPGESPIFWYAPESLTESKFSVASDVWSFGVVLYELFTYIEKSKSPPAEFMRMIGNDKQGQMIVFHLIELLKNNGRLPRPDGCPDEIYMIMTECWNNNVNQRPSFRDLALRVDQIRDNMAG

Compound: [H]/N=C(/NCCCCC)N/N=C/c1c[nH]c2ccc(OC)cc12 [Tegaserod maleate]
- IC50 (STAT3): 5.06 µM

Compound: CCCCCNC(=N)N/N=C/c1c[nH]c2ccc(OC)cc12 [Tegaserod, 2-[(5-methoxy-1H-indol-3-yl)methylene]-N-pentylcarbazide]
- inhibition of IL-6-induced STAT3 activation (Y705 phosphorylation) (STAT3 (Y705)): inhibited the activation of STAT3 induced by IL-6 in a dosage-dependent manner
- IC50 (lung cancer A549 cells): 5.7 µM
- inhibition of phosphorylation at JAK1 Tyr1022/1023 (JAK1 Tyr1022/1023; 7.5 μM, 2 h): could inhibit the phosphorylation
- selectivity within the JAK kinase family (JAK1 Tyr1022/1023; JAK1 and JAK2 versus TYK2): higher affinity to JAK1 and JAK2 than to TYK2
- total WBC count, neutrophils, lymphocytes, and platelets in the peripheral blood [1]: could stimulate the increase
- anti-tumor effect relative to gefitinib ([2]; 5 mg/kg i.p. versus 100 mg/kg gefitinib p.o., A549 nude mice): comparable to that of 100 mg/kg gefitinib (p.o.)
- growth of A549 transplanted tumors ([2]; 5 mg/kg i.p., nude mice, versus control group): could effectively inhibit the growth of A549 tumor cells
- dependence of tumor inhibition rate on dosage ([2]; A549 transplanted tumor nude mouse model): no dependence on a Tegaserod dosage
- growth of A549 transplanted tumors (tumor weight and tumor volume) ([2]; oral administration, nude mice): could inhibit the growth of A549 transplanted tumors in nude mice
- IC50 [3]: 2500 nM
- IC50 (DLD1 colon cancer cells): 8.7 µM
- growth of CRC MC38 transplanted tumors [4]: could effectively inhibit the growth of CRC MC38 transplanted tumors
- proportion of immune cells (CD45+; CD11b+Ly6G+, CD11b+Ly6C+, CD335+) in tumors [5]: could increase the proportion of immune cells (CD45+) in tumors
- infiltration of immune cells (CD45+) inside tumors [6]: promoted the infiltration of immune cells (CD45+) inside tumors
- inhibition of phosphorylation at TYK2 Tyr1054/1055 (TYK2 Tyr1054/1055): could also inhibit the phosphorylation
- tumor inhibition ability at reduced administration frequency ([7]; DU145 nude mice, oral, once every two days): exhibited a stronger tumor inhibition ability
- dependence of tumor inhibition rate on dosage ([7]; DU145 transplanted tumor nude mouse model): no dependence on a Tegaserod dosage
- growth of DU145 transplanted tumors ([7]; oral administration, nude mice): could effectively inhibit the growth of DU145 transplanted tumors in nude mice
- inhibition of STAT3 activation (Tyr705 phosphorylation) (STAT3 Tyr705 [8]): could inhibit the activation of STAT3 in a dosage-dependent manner
- inhibition of STAT3 activation (Tyr705 phosphorylation) (STAT3 Tyr705 [9]): could inhibit the activation of STAT3 in a dosage-dependent manner
- inhibition of phosphorylation at JAK2 Tyr1007/1008 (JAK2 Tyr1007/1008): could inhibit the phosphorylation
- phosphorylation level of STAT3 in tumors (immunohistochemistry) (phosphorylated STAT3): could effectively inhibit the phosphorylation level of STAT3
- genes of cytokine-cytokine receptor interaction and antigen processing and presentation (KEGG analysis) [10]: significantly up-regulated
- organ damage after anatomy ([11]; A549 nude mouse model, i.p. administration, experimental endpoint): no obvious organ damage was observed
- body weight ([11]; A549 nude mouse model, i.p. administration, throughout the experiment): did not change significantly
- body weight ([11]; A549 nude mouse model, oral administration): did not lose weight
- drug toxicity (body weight) ([11]; DU145 nude mouse model, low-dosage, low-frequency oral administration): no obvious drug toxicity
- drug toxicity ([11]; DU145 nude mouse model, oral administration): without obvious drug toxicity
- drug toxicity ([11]; MC38 model, immune-sound mice): without obvious drug toxicity
- IC50 (lung cancer H460 cells): 3.1 µM
- tumor proliferation ability (Ki67 immunohistochemistry) [12]: decreased proliferation ability

Compound: COc1cc2ncnc(Nc3ccc(F)c(Cl)c3)c2cc1OCCCN1CCOCC1 [gefitinib]
- total WBC count, neutrophils, lymphocytes, and platelets in the peripheral blood [1]: stimulate the increase
- proportion of immune cells (CD45+; CD11b+Ly6G+, CD11b+Ly6C+, CD335+) in tumors [5]: also exhibited a similar immunomodulatory effect
